Test results from patent publication US10421722B2, “Sulfur-containing compounds targeting vesicular acetylcholine transporter” (Washington University, priority 2016, dated 2019).
Where two headings read alike, the source gives them in different places.

How the values were obtained:
VAChT [1] = biological target: VAChT (Rattus norvegicus (Rat), UniProt Q62666); experiment: Ex vivo autoradiography of rat brain; format: in vivo, Sprague-Dawley rat; settings: for uptake ratio of radioactivity in striatum versus cerebellum: 30 slices, 60 min post-injection, tail vein; for brain distribution of radioactivity (autoradiograms): 1 h after injection
Sequence of VAChT (Rattus norvegicus (Rat), UniProt Q62666) (Q62666 whole entry): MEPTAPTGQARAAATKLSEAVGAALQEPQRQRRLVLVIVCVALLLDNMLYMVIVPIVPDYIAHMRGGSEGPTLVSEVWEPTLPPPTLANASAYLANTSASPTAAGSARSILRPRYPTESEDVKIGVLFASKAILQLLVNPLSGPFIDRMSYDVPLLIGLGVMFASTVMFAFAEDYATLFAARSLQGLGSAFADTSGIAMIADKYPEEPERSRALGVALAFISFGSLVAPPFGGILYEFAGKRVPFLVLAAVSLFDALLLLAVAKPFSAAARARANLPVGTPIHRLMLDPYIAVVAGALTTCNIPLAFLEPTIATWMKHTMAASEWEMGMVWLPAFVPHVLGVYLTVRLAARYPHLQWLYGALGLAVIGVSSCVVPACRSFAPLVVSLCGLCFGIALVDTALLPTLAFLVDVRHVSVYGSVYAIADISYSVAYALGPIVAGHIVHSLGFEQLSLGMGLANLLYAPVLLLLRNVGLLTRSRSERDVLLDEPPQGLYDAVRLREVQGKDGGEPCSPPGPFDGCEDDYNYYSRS
Description: Ex vivo autoradiography was performed on 6-8 month old male Sprague-Dawley rats to confirm the brain distribution of radiolabeled VAChT ligands. Mature male Sprague-Dawley rats were injected with ˜500 μCi of (−)-[^11C]3 or (−)-[^18F]9a via the tail vein under isoflurane/oxygen anesthesia, respectively. The rats were euthanized after 1 h and the brains were quickly removed and placed in a metal brain matrix with slots spaced at 1 mm intervals. The brains were then frozen in the matrix and sectioned into 100 μm coronal slices. Brain slices were carefully removed from the brain matrix razor blades and placed on a clear sheet covered with film and mounting on glass slides. Then, the brain sections were exposed to the film in an imaging cassette for 12 h before they were counted by the FLA7000. Photographic images were obtained using a flatbed scanner. […] There was also moderate uptake in other regions, which may be caused by the moderate binding activity to σ1 receptor. The quantification of autoradiography from entire 30 brain slices indicated the uptake ratio of radioactivity in striatum versus cerebellum reached 1.75 and 1.54, respectively. (FIGS. 6B and 6D)

VAChT [2] = settings: cynomolgus monkey, in vivo
Description: PET studies were performed on adult male cynomolgus monkeys (6-8 kg) with a MicroPET Focus 220 scanner (Concorde/CTI/Siemens Microsystems, Knoxville, Tenn.). The animal was anesthetized using an intramuscular injection with ketamine (10-20 mg/kg) and glycopyrrolate (0.013-0.017 mg/kg) and then transported to the PET scanner suit. After arrival, the animal was intubated with an endotracheal tube and anesthesia was maintained at 0.75-2.0% isoflurane/oxygen throughout the procedure, and then a percutaneous venous catheter was placed for radiotracer injection. A heated water blanket was used to keep the temperature at 37° C. In each MicroPET scanning session, the head was positioned supine in the adjustable head holder with the brain in the center of the field of view. A 10-min transmission scan was performed to check positioning; once confirmed, a 45 min transmission scan was obtained for attenuation correction. Subsequently, a 2 h dynamic emission scan was acquired after administration of 296-410 MBq of (−)-[^11C]3 or (−)-[^18F]9a via the venous catheter. PET scans were collected from 0-120 min with the following time frames: 3×1 min, 4×2 min, 3×3 min and 20×5 min. PET image reconstructed resolution was <2.0 mm full width half maximum for all 3 dimensions at the center of the field of view. Emission data were corrected using individual attenuation and model-based scatter correction and reconstructed using filtered back projection. The first baseline PET image for each animal acted as the target image with the MPRAGE and subsequent PETs co-registered using automated image registration program AIR. All MPRAGE-based volume of interest (VOI) analyses were accomplished by experienced investigators. For quantitative analyses, three-dimensional ROIs (striatum, cerebellum, frontal cortex, occipital cortex, temporal, midbrain, hippocampus and thalamus) were transformed to the baseline PET space and then overlaid on all reconstructed PET images to obtain time-activity curves. Activity measures were standardized to body weight and dose of radioactivity injected to yield standardized uptake value (SUV).

σ2 receptor = σ2 receptor (Rattus norvegicus (Rat), UniProt Q5U3Y7); experiment: σ2 receptor binding, [3H]DTG; settings: for Ki: oxalate form, homogenates of rat liver; for Selectivity ratio VAChT/σ2: ratio of Ki values
Sequence of σ2 receptor (Q5U3Y7 whole entry): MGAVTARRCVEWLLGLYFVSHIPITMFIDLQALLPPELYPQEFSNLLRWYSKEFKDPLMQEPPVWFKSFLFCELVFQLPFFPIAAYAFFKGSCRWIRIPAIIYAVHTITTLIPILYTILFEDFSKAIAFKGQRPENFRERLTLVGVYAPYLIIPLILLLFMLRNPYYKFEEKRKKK
Description: In vitro binding studies were performed to measure the affinities to the VAChT and σ1 and σ2 receptors. […]
(§1) Briefly, to measure the σ1 receptor binding affinity, we use guinea pig brain membrane homogenates (˜300 μg protein) tissues as the receptor resource and ˜5 nM [^3H](+)-Pentazocine (34.9 Ci/mmol, Perkin Elmer, Boston, Mass.) as the radioligand. The mixture was incubated in 96-well plates for 90 min at room temperature. Nonspecific binding was determined from samples containing 10 μM of nonradioactive Haloperidol. After 90 min, the mixture was transferred into a 96-well fiberglass filter plate (Millipore, Billerica, Mass.) presoaked with 100 μL of 50 mM Tris-HCl buffer at pH 8.0 for 60 min, followed by addition of 150 μL of ice-cold wash buffer (10 mM Tris-HCl, 150 mM NaCl, pH 7.4). The harvested samples were filtered rapidly and washed with 3×200 μL portions of ice-cold wash buffer, and the filterers were counted by a Wallac 1450 MicroBeta liquid scintillation counter (Perkin-Elmer, Boston, Mass.). […] The mixture was incubated for 120 min at room temperature. Nonspecific binding was determined from samples containing 10 μM of nonradioactive Haloperidol. All other procedures were similar to those described for the σ1 receptor binding assay above. Data from the competitive binding experiments were modeled using nonlinear regression analysis to determine the concentration that inhibits 50% of the specific binding of the radioligand. Competitive binding curves were best fit to a one-site fit and gave pseudo-Hill coefficients of 0.6-1.0. Ki values were calculated using the method of Cheng and Prusoff,^35 then presented as the mean±SEM.

σ1 receptor = σ1 receptor (Cavia porcellus (Guinea pig), UniProt Q60492); experiment: σ1 receptor binding, [3H](+)-Pentazocine; settings: for Ki: oxalate form, homogenates of guinea pig brain, mean ± SEM; for Selectivity ratio VAChT/σ1: ratio of Ki values
Sequence of σ1 receptor (Q60492 whole entry): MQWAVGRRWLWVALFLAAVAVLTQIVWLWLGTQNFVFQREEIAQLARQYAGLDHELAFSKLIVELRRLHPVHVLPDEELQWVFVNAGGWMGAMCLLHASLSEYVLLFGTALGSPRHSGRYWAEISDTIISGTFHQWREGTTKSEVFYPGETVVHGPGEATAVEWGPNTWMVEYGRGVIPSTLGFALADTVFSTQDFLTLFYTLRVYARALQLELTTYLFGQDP
Description: (§2) In vitro binding studies were performed to measure the affinities to the VAChT and σ1 and σ2 receptors. VAChT binding was assayed using membrane homogenate from PC12 cells which overexpress human VAChT.^8 The σ1 and σ2 binding affinities were assayed in […], respectively.
as §1

human VAChT = human VAChT (Homo sapiens (Human), UniProt Q16572); experiment: VAChT binding, competition against [3H]Vesamicol; settings: oxalate form, expressed human VAChT, mean ± SEM
Sequence of human VAChT (Q16572 whole entry): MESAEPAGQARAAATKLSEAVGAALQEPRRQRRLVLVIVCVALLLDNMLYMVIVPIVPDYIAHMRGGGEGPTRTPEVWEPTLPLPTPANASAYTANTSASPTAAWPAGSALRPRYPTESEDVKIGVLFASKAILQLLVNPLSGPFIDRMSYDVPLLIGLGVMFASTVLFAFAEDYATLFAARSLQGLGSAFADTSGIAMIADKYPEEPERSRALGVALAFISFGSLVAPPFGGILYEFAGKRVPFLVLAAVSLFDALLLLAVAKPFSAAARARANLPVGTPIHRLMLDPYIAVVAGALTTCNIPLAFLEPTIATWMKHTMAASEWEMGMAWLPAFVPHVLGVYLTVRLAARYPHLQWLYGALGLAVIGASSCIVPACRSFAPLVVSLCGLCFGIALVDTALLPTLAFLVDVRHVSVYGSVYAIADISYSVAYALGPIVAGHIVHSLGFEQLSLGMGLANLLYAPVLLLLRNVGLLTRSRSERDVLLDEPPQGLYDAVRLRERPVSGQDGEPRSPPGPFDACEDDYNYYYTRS
Description: as §2
The test compounds were assayed in increments of 10-fold from 0.1 to 10,000 nM concentration. The surfaces of containers were pre-coated with Sigmacote (Sigma-Aldrich, Mo.). Samples containing 200 μg postnuclear supernatant in 200 μL of 110 mM potassium tartrate, 20 mM HEPES (pH 7.4 with KOH), 1 mM dithiothreitol, and 0.02% sodium azide were incubated at 22° C. for 24 h. A volume of 90 μL was filtered in duplicate through GF/F glass fiber filters coated with polyethylenimine and washed. Filter-bound radioactivity was determined by liquid scintillation spectrometry for 10 min per sample. Averaged data were fitted by regression with a rectangular hyperbola to estimate Ki value. All the compounds were independently assayed at least two times.

[3] = Radiometabolite analysis of NHP arterial plasma; format: in vivo, cynomolgus monkey
Description: In order to further understand the kinetic property, radioactive metabolite analysis on HPLC was performed for NHP plasma. (−)-[^18F]9a was chosen for this study because of the high uptake and longer half live of ^18F. Arterial blood samples (1.2-1.5 mL) were collected at 2, 5, 15, 30, and 60 min post-injection of the radiotracer in a heparinized syringe. Aliquots of whole blood (1 mL) were counted in a well counter, then centrifuged to separate red blood cells from plasma. Aliquots of plasma (400 μL) were deproteinated using ice-cold methanol (0.92 mL) and separated by centrifugation. The solvent extract was then injected onto HPLC to identify the percentage of radioactive parent compound versus any radiolabeled metabolites. The HPLC system consisted of an Agilent SB C-18 analytic HPLC column (250 mm×4.6 mm) and an UV detector with wavelength set at 254 nm. The mobile phase was 43% acetonitrile in 0.1 M ammonium formate buffer (pH 4.5), and the flow rate was 1.0 mL/min. The HPLC fractions were collected at 1 min intervals for 16 min; each fraction was counted by a well counter to determine the radioactivity of each collection. The results were corrected for background radiation and physical decay.

[4] = Table 2, read-out: Ki (nM) VAChT

SMILES	uptake ratio of radioactivity in striatum versus cerebellum (VAChT [1])	brain distribution of radioactivity (autoradiograms) (VAChT [1])	brain entry (VAChT [2])	regional brain accumulation (VAChT [2])	time at which striatal SUV reached maximum (VAChT [2]) [min]	Ki (σ2 receptor) [nM]	Selectivity ratio VAChT/σ2 (σ2 receptor)	Ki (σ1 receptor) [nM]	Selectivity ratio VAChT/σ1 (σ1 receptor)	Ki (human VAChT; [4]) [nM]	other results
[11CH3]Sc1ccc(C(=O)C2CCN([C@@H]3Cc4ccccc4C[C@H]3O)CC2)cc1 (single isomer, unassigned) [(−)-[^11C]3]	1.75	high accumulation in the VAChT enriched striatum	able to enter the NHP brain	highest accumulation in the striatal region	10	–	–	–	–	–	maximum standardized uptake value (SUV) in striatum (VAChT [2]): 4.0
CS(=O)(=O)c1ccc(C(=O)C2CCN([C@@H]3Cc4ccccc4C[C@H]3O)CC2)cc1 (single isomer, unassigned) [(+)-2]	–	–	–	–	–	> 1000	>5	18.5 ± 3.4	0.1	193 ± 17.8	–
O=C(c1ccc(SCC[18F])cc1)C1CCN([C@@H]2Cc3ccccc3C[C@H]2O)CC1 (single isomer, unassigned) [(−)-[^18F]9a]	1.54	high accumulation in the VAChT enriched striatum	able to enter the NHP brain	highest accumulation in the striatal region	6	–	–	–	–	–	percentage of parent compound in plasma ([3]; NHP arterial plasma, 2 min post-injection): 69%; percentage of parent compound in plasma ([3]; NHP arterial plasma, 5 min post-injection): 48%; percentage of parent compound in plasma ([3]; NHP arterial plasma, 15 min post-injection): 27%; percentage of parent compound in plasma ([3]; NHP arterial plasma, 30 min post-injection): 21%; percentage of parent compound in plasma ([3]; NHP arterial plasma, 60 min post-injection): 15%; percentage of hydrophilic radioactive metabolite ([3]; NHP arterial plasma, peaked after 30 min): 70%; metabolism in plasma ([3]; NHP plasma, HPLC metabolite analysis): quickly metabolized in the plasma
CS(=O)(=O)c1ccc(C(=O)C2CCN(C3Cc4ccccc4CC3O)CC2)cc1 (racemic) [Compound 2, (1-(3-Hydroxy-1,2,3,4-tetrahydronaphthalen-2-yl)piperidin-4-yl)(4 (methylsulfonyl)phenyl)methanone]	–	–	–	–	–	> 1000	>185	16.5 ± 2.1	3.1	–	Ki (human VAChT; Table 1, read-out: Ki (nM) for VAChT): 5.4 nM
CS(=O)(=O)c1ccc(C(=O)C2CCN(C3Cc4ccccc4CC3O)CC2)cc1 (single isomer, unassigned; (-)) [(−)-2]	–	–	–	–	–	> 1000	>243	34.7 ± 4.9	8.5	4.1 ± 0.9	–
CSc1ccc(C(=O)C2CCN([C@@H]3Cc4ccccc4C[C@H]3O)CC2)cc1 (single isomer, unassigned) [(+)-3]	–	–	–	–	–	> 1000	>72	23.3 ± 2.9	1.7	13.8 ± 1.1	–
